Measurements: US4385060A, “Penicillins” (Beecham Group Limited, priority 1979, dated 1983)
Entries after “also recorded” stand apart in the source; their conditions may differ.

Key:
[1] = Oral administration as syrup equivalent to 400 mg ticarcillin, phenyl vs p-tolyl ester (data of British Pat. No. 1,455,529); type: in vivo, man
Text: The improved bioavailability can also be seen from the individual mean serum concentration figures in table 1. […] This can be seen by the comparison with the phenyl ester and for convenience the data from specification No. 1,455,529 is repeated in table 3 below:
(Administration as syrup containing equivalent

[2] = in words; cited from earlier work
[3] = Oral absorption in fasting human volunteers (syrup): serum ticarcillin, AUC and urinary excretion by bio-assay, Experiments A-D; type: in vivo
Procedure: To obtain the results shown in table 1, the two esters of ticarcillin were each given to a panel of fasting human volunteers in a syrup formulation in an amount equivalent to provide either 200 or 400 mg (as stated in table 1) of the free ticarcillin after the expected in vivo hydrolysis. Periodic blood samples were taken from the volunteers and each assayed for ticarcillin content by a standard bio-assay technique. The urine excreted by each volunteer within the 6 hours following administration was also collected and assayed for the free ticarcillin. All three parameters (viz the urinary excretion level, the peak serum concentration achieved and the total area under the curve when the serum concentration is plotted against time) are indications of the minimum degree to which the penicillin ester has been absorbed after oral administration and then hydrolysed in vivo.

[4] = Intact ester in blood and urine after oral administration to human volunteers; type: in vivo; details: urine, read-out: ester present in urine

oral absorption compared to the ortho ester ([1]; in words, p-tolyl vs α-ortho ester) | statistical significance of differences in mean serum concentrations ([1]; p-tolyl vs phenyl ester, table 3) | urinary recovery of ticarcillin compared to the phenyl ester ([3]; in words) | bioavailability as measured by AUC higher than for the phenyl ester ([3]; o-tolyl vs phenyl ester, oral, man, overall) | Compound | oral absorption in man [2] | bioavailability of ticarcillin after oral administration compared to the phenyl ester ([3]; in words, AUC, listed as α-ortho-tolyl ester) | dose excreted at 6 h [4]
much less well absorbed | not statistically significant | – | – | Cc1ccc(OC(=O)C(C(=O)N[C@@H]2C(=O)N3[C@@H]2SC(C)(C)[C@@H]3C(=O)O)c2ccsc2)cc1 (stereo partly drawn) [p-tolyl, α-para-tolyl mono-ester of α-carboxy-3-thienylmethyl penicillin] | high degree of oral absorption in man | – | –
– | – | greater urinary recovery | 120-220% | Cc1ccccc1OC(=O)C(C(=O)N[C@@H]1C(=O)N2[C@@H]1SC(C)(C)[C@@H]2C(=O)O)c1ccsc1 (stereo partly drawn) [o-tolyl, 6β-[2-(2'-methylphenoxycarbonyl)-2-thien-3'-ylacetamido]penicillanic acid] | – | considerably greater; also recorded: two- to three-fold greater | ~2%
– | – | – | – | CC1(C)S[C@@H]2[C@H](NC(=O)C(C(=O)Oc3ccccc3)c3ccsc3)C(=O)N2[C@H]1C(=O)O (stereo partly drawn) [phenyl, α-phenyl ester of α-carboxy-3-thienylmethyl penicillin, reference compound] | – | – | ~1%
